This note sets out measurements from patent US20260092071A1, “COMPOUNDS AND COMPOSITIONS AS SMARCA2/4 DEGRADERS AND USES THEREOF” (REGENTS OF THE UNIVERSITY OF MICHIGAN, priority 2022, published 2026).

In test [1] the target is SMARCA2 (Homo sapiens, UniProt P51531). Nature of the test: HiBit assay in engineered HT1080 CRISPR knock-in cell, 6 hrs (B series), SMARCA2. The format is cell-based. Particulars: 6 hrs incubation; for DC50: HT1080 CRISPR knock-in cells, read-out: SMARC A2 HT1080 HiBit DC50; for Dmax: HT-1080, HT1080 CRISPR knock-in cells, read-out: SMARC A2 HT1080 HiBit Dmax (%). Put shortly: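 Engineered HT1080 knock-in cells, 2000 cells/well, 6 hrs compound exposure, 37° C/5% CO2, 0.1% DMSO final. Lytic detection: LgBiT 1:100 plus HiBiT substrate 1:50 in lytic buffer, 10 min shake at RT, luminescence read.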
Chain of SMARCA2 (P51531 whole entry): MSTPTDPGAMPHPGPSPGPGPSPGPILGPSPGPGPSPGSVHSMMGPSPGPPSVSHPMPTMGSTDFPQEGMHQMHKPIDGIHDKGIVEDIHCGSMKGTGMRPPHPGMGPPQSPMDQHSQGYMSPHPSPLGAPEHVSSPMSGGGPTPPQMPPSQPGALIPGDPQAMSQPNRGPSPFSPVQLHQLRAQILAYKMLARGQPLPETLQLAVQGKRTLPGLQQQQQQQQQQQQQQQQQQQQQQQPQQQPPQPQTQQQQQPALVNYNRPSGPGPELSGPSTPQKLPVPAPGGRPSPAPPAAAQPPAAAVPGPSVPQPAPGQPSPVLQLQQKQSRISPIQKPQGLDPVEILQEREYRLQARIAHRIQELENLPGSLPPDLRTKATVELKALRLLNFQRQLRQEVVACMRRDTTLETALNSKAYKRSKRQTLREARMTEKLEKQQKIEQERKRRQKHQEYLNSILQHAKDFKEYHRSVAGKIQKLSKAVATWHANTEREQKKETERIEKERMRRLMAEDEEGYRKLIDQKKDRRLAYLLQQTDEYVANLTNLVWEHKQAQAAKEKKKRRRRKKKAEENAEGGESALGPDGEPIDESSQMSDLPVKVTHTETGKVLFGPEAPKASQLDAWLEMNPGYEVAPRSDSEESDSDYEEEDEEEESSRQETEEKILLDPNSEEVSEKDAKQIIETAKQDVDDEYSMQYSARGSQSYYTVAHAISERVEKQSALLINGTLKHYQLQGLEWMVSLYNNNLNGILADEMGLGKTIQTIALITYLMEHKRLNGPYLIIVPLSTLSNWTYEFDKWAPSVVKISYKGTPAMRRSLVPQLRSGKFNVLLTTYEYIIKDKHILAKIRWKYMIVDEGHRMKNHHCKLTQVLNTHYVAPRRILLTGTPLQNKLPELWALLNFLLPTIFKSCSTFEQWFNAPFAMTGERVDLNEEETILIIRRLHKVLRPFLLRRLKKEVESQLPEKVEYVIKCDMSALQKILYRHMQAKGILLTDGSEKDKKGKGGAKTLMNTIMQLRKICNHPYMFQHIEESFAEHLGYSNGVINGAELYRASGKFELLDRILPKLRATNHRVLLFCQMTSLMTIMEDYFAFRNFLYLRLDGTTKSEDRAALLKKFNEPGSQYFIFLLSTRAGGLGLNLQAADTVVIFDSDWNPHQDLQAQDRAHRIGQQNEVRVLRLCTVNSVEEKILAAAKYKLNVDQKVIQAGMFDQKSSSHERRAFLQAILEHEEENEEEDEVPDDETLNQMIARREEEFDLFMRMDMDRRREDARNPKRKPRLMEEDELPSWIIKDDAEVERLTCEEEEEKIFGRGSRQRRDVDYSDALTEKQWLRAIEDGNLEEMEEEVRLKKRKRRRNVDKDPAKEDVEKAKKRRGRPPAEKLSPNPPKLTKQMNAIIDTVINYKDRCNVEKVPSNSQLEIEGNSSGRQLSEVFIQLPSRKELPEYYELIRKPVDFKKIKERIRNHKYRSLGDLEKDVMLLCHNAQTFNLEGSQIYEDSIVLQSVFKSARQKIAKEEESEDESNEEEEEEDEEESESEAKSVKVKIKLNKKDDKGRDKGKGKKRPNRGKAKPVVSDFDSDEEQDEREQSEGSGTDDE

For test [2], the target named is SMARCA4 (Homo sapiens, UniProt P51532). Description: HiBit assay in engineered HT1080 CRISPR knock-in cell, 6 hrs (B series), SMARCA4. The format is cell-based. The settings on record: 6 hrs incubation; for DC50: HT1080 CRISPR knock-in cells, read-out: SMARC A4 HT1080 HiBit DC50; for Dmax: HT-1080, HT1080 CRISPR knock-in cells, read-out: SMARC A4 HT1080 HiBit Dmax(%). Put shortly:
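Protein abundance is measured in HiBiT-tagged HT1080 CRISPR knock-in cells after a 6 hr compound treatment (0.1% DMSO) by lytic Nano-Glo HiBiT luminescence.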
A general note: HiBiT is a short tag that completes a luciferase, so light tracks the accessible tagged protein.

Chain of SMARCA4 (P51532 whole entry): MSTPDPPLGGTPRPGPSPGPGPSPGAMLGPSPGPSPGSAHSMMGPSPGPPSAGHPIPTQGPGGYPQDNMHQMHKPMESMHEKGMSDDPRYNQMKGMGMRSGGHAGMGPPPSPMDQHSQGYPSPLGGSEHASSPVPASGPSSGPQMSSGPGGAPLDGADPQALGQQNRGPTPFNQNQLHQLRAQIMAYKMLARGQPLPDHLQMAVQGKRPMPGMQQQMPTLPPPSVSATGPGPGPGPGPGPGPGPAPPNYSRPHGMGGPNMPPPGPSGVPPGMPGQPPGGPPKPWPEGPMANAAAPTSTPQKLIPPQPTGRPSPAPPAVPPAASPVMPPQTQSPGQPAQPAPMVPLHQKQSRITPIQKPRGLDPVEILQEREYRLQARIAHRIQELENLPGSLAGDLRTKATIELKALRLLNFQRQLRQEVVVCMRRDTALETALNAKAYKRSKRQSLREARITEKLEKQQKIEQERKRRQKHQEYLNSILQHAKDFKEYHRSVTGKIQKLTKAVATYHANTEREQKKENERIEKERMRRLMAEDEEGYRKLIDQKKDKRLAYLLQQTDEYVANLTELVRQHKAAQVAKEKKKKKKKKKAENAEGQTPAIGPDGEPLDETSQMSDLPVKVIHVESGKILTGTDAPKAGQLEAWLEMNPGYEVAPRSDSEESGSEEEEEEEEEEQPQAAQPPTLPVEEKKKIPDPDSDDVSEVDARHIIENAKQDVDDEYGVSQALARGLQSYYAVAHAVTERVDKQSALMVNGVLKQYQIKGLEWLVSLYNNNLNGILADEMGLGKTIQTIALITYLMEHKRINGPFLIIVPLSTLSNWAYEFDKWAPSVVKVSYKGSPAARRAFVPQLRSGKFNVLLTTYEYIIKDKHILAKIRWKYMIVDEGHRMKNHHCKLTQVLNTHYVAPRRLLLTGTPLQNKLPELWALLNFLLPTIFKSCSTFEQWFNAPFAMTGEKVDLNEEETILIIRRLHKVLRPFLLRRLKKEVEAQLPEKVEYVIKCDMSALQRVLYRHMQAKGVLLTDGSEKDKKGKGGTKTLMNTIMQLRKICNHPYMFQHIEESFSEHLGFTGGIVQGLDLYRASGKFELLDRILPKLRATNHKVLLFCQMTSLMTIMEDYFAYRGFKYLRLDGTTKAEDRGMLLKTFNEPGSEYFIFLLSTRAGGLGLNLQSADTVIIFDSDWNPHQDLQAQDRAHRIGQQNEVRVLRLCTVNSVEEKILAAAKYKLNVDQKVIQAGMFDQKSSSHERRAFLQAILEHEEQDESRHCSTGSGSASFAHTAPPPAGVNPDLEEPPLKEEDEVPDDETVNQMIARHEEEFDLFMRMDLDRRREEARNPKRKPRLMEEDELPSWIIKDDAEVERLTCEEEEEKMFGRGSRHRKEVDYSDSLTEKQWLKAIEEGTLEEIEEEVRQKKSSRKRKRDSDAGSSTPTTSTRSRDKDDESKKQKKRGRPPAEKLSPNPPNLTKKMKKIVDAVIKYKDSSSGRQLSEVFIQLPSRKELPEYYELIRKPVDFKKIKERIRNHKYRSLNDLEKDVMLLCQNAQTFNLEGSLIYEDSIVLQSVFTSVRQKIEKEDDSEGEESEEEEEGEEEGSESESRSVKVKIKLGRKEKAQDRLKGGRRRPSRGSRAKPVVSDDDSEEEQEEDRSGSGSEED

With `Cc1ncsc1-c1ccc([C@H](C)NC(=O)[C@@H]2C[C@@H](O)CN2C(=O)[C@@H](n2cc(C3CC4(C3)CC(N3CCC(c5ccc6c(c5)-n5c(nc(=O)c7c(Cl)cccc75)C6(C)C)CC3)C4)nn2)C(C)(C)C)cc1` (stereo partly drawn) [Compound B86, (2S,4R)-1-((S)-2-(4-(6-(4-(4-chloro-7,7-dimethyl-5-oxo-5,7-dihydroindolo[1,2-a]quinazolin-10-yl)piperidin-1-yl)spiro[3.3]heptan-2-yl)-1H-1,2,3-triazol-1-yl)-3,3-dimethylbutanoyl)-4-hydroxy-N—((S)-1-(4-(4-methylthiazol-5-yl)phenyl)ethyl)pyrrolidine-2-carboxamide], the DC50 in test [1] and in test [2] was less than 100 nM each time. The Dmax in test [1] is greater than 90%; in test [2], 70 to 90%.

Consider `CC(=O)c1ccc([C@H](C)NC(=O)[C@@H]2C[C@@H](O)CN2C(=O)[C@H](C(C)C)n2cc([C@H]3CC[C@H](CN4CCC(c5ccc6c(c5)-n5c(nc(=O)c7c(Cl)cccc75)C6(C)C)CC4)CC3)nn2)cc1` [Compound B134, (2S,4R)-N-((S)-1-(4-acetylphenyl)ethyl)-1-((S)-2-(4-((1r,4S)-4-((4-(4-chloro-7,7-dimethyl-5-oxo-5,7-dihydroindolo[1,2-a]quinazolin-10-yl)piperidin-1-yl)methyl)cyclohexyl)-1H-1,2,3-triazol-1-yl)-3-methylbutanoyl)-4-hydroxypyrrolidine-2-carboxamide], for which the DC50 in test [1] and in test [2] was less than 100 nM each time. For the same compound, the Dmax in test [1] was greater than 90%; in test [2], 50 to 69%.

With `C[C@H](NC(=O)[C@@H]1C[C@@H](O)CN1C(=O)[C@@H](n1cc(C2CCC(CN3CCN(c4ccc5c(c4)-n4c(nc(=O)c6c(Cl)cccc64)C54CCCCC4)CC3)CC2)nn1)C(C)(C)C)c1ccc(-c2scnc2C#CCN2CCOCC2)cc1` (stereo partly drawn) [Compound B140, (2S,4R)-1-((S)-2-(4-((1s,4R)-4-((4-(4′-chloro-5′-oxo-5′H-spiro[cyclohexane-1,7′-indolo[1,2-a]quinazolin]-10′-yl)piperazin-1-yl)methyl)cyclohexyl)-1H-1,2,3-triazol-1-yl)-3,3-dimethylbutanoyl)-4-hydroxy-N-((S)-1-(4-(4-(3-morpholinoprop-1-yn-1-yl)thiazol-5-yl)phenyl)ethyl)pyrrolidine-2-carboxamide], in test [1], the DC50 was less than 100 nM and the Dmax is greater than 90%. Further, in test [2], the DC50 is less than 100 nM and the Dmax was 50 to 69%.

As to `Cc1ncsc1-c1ccc([C@H](CC(=O)NCCCCN2CCC(c3ccc4c(c3)-n3c(nc(=O)c5c(Cl)cccc53)C4(C)C)CC2)NC(=O)[C@@H]2C[C@@H](O)CN2C(=O)[C@@H](NC(=O)C2(F)CC2)C(C)(C)C)cc1` [Compound B33, (2S,4R)—N—((S)-3-((4-(4-(4-chloro-7,7-dimethyl-5-oxo-5,7-dihydroindolo[1,2-a]quinazolin-10-yl)piperidin-1-yl)butyl)amino)-1-(4-(4-methylthiazol-5-yl)phenyl)-3-oxopropyl)-1-((S)-2-(1-fluorocyclopropane-1-carboxamido)-3,3-dimethylbutanoyl)-4-hydroxypyrrolidine-2-carboxamide], in test [1], the DC50 was greater than 1000 nM and the Dmax was less than 50%. Besides, in test [2], the DC50 was greater than 1000 nM and the Dmax is less than 50%.

For `Cc1ncsc1-c1ccc([C@H](CN2CCOCC2)NC(=O)[C@@H]2C[C@@H](O)CN2C(=O)[C@@H](n2cc([C@H]3CC[C@H](CN4CCC(c5ccc6c(c5)-n5c(nc(=O)c7c(Br)cccc75)C6(C)C)CC4)CC3)nn2)C(C)(C)C)cc1` [Compound B105, (2S,4R)-1-((S)-2-(4-((1r,4S)-4-((4-(4-bromo-7,7-dimethyl-5-oxo-5,7-dihydroindolo[1,2-a]quinazolin-10-yl)piperidin-1-yl)methyl)cyclohexyl)-1H-1,2,3-triazol-1-yl)-3,3-dimethylbutanoyl)-4-hydroxy-N—((R)-1-(4-(4-methylthiazol-5-yl)phenyl)-2-morpholinoethyl)pyrrolidine-2-carboxamide], in test [1], the DC50 was less than 100 nM and the Dmax was greater than 90%. Further, in test [2], the DC50 lay in the range of 100 to 500 nM and the Dmax lay within 70 to 90%.

In the case of `Cc1ncsc1-c1ccc([C@H](C)NC(=O)[C@@H]2C[C@@H](O)CN2C(=O)[C@@H](c2cc(N3CCC(CN4CCC(c5ccc6c(c5)C(C)(C)c5nc(=O)c7c(Cl)cccc7n5-6)CC4)CC3)no2)C(C)C)cc1` [Compound B9, (2S,4R)-1-((R)-2-(3-(4-((4-(4-chloro-7,7-dimethyl-5-oxo-5,7-dihydroindolo[1,2-a]quinazolin-9-yl)piperidin-1-yl)methyl)piperidin-1-yl)isoxazol-5-yl)-3-methylbutanoyl)-4-hydroxy-N—((S)-1-(4-(4-methylthiazol-5-yl)phenyl)ethyl)pyrrolidine-2-carboxamide], the DC50 in test [1] and in test [2] was less than 100 nM throughout. Also, the Dmax in test [1] and in test [2] was greater than 90% in each case.

On to `Cc1ncsc1-c1ccc([C@H](C)NC(=O)[C@@H]2C[C@@H](O)CN2C(=O)[C@@H](NC(=O)CCCn2cc(-c3ccc4c(c3)-n3c(nc(=O)c5c(Cl)cccc53)C4(C)C)cn2)C(C)(C)C)cc1` [Compound B83, (2S,4R)-1-((S)-2-(4-(4-(4-chloro-7,7-dimethyl-5-oxo-5,7-dihydroindolo[1,2-a]quinazolin-10-yl)-1H-pyrazol-1-yl)butanamido)-3,3-dimethylbutanoyl)-4-hydroxy-N-((S)-1-(4-(4-methylthiazol-5-yl)phenyl)ethyl)pyrrolidine-2-carboxamide], for which the DC50 in test [1] was 100 to 500 nM; in test [2], greater than 1000 nM. Moreover, the Dmax in test [1] and in test [2] was less than 50% throughout.

In the case of `Cc1ncsc1-c1ccc([C@H](C)NC(=O)[C@@H]2C[C@@H](O)CN2C(=O)[C@H](C(C)C)n2cc(CCN3CCC(c4ccc5c(c4)C(C)(C)c4nc(=O)c6c(Cl)cccc6n4-5)CC3)nn2)cc1` [Compound B17, (2S,4R)-1-((S)-2-(4-(2-(4-(4-chloro-7,7-dimethyl-5-oxo-5,7-dihydroindolo[1,2-a]quinazolin-9-yl)piperidin-1-yl)ethyl)-1H-1,2,3-triazol-1-yl)-3-methylbutanoyl)-4-hydroxy-N-((S)-1-(4-(4-methylthiazol-5-yl)phenyl)ethyl)pyrrolidine-2-carboxamide], the DC50 in test [1] and in test [2] was less than 100 nM in each case. Also, the Dmax in test [1] and in test [2] was greater than 90% each time.

In the case of `Cc1ncsc1-c1ccc([C@H](C)NC(=O)[C@@H]2C[C@@H](O)CN2C(=O)[C@H](C(C)C)n2cc(CCCN3CCC(c4ccc5c(c4)C(C)(C)c4nc(=O)c6c(Cl)cccc6n4-5)CC3)nn2)cc1` [Compound B24, (2S,4R)-1-((S)-2-(4-(3-(4-(4-chloro-7,7-dimethyl-5-oxo-5,7-dihydroindolo[1,2-a]quinazolin-9-yl)piperidin-1-yl)propyl)-1H-1,2,3-triazol-1-yl)-3-methylbutanoyl)-4-hydroxy-N—((S)-1-(4-(4-methylthiazol-5-yl)phenyl)ethyl)pyrrolidine-2-carboxamide], in test [1], the DC50 was less than 100 nM and the Dmax was greater than 90%. In test [2], the DC50 was less than 100 nM and the Dmax is greater than 90%.

As for `C[C@H](NC(=O)[C@@H]1C[C@@H](O)CN1C(=O)[C@@H](n1cc([C@H]2CC[C@H](CN3CCN(c4ccc5c(c4)-n4c(nc(=O)c6c(Cl)cccc64)C5(C)C)CC3)CC2)nn1)C(C)(C)C)c1ccc(-c2scnc2C#CCN2CCOCC2)cc1` [Compound B135, (2S,4R)-1-((S)-2-(4-((1r,4S)-4-((4-(4-chloro-7,7-dimethyl-5-oxo-5,7-dihydroindolo[1,2-a]quinazolin-10-yl)piperazin-1-yl)methyl)cyclohexyl)-1H-1,2,3-triazol-1-yl)-3,3-dimethylbutanoyl)-4-hydroxy-N-((S)-1-(4-(4-(3-morpholinoprop-1-yn-1-yl)thiazol-5-yl)phenyl)ethyl)pyrrolidine-2-carboxamide], in test [1], the DC50 was less than 100 nM and the Dmax is greater than 90%. In test [2], the DC50 is less than 100 nM and the Dmax is 70 to 90%.

For the compound `Cc1ncsc1-c1ccc([C@H](C)NC(=O)[C@@H]2C[C@@H](O)CN2C(=O)[C@H](C(C)C)n2cc(CCCCN3CCC(c4ccc5c(c4)-n4c(nc(=O)c6c(Cl)cccc64)C5(C)C)CC3)nn2)cc1` [Compound B73, (2S,4R)-1-((S)-2-(4-(4-(4-(4-chloro-7,7-dimethyl-5-oxo-5,7-dihydroindolo[1,2-a]quinazolin-10-yl)piperidin-1-yl)butyl)-1H-1,2,3-triazol-1-yl)-3-methylbutanoyl)-4-hydroxy-N-((S)-1-(4-(4-methylthiazol-5-yl)phenyl)ethyl)pyrrolidine-2-carboxamide], in test [1], the DC50 was less than 100 nM and the Dmax was greater than 90%. For the same compound, in test [2], the DC50 is 100 to 500 nM and the Dmax fell in the range of 70 to 90%.

Regarding `Cc1ncsc1-c1ccc([C@H](C)NC(=O)[C@@H]2C[C@@H](O)CN2C(=O)[C@@H](c2cc(OC3CCC(CN4CCC(c5ccc6c(c5)-n5c(nc(=O)c7c(Cl)cccc75)C6(C)C)CC4)CC3)no2)C(C)C)cc1` (stereo partly drawn) [Compound B38, (2S,4R)-1-((R)-2-(3-((4-((4-(4-chloro-7,7-dimethyl-5-oxo-5,7-dihydroindolo[1,2-a]quinazolin-10-yl)piperidin-1-yl)methyl)cyclohexyl)oxy)isoxazol-5-yl)-3-methylbutanoyl)-4-hydroxy-N-((S)-1-(4-(4-methylthiazol-5-yl)phenyl)ethyl)pyrrolidine-2-carboxamide], in test [1], the DC50 is less than 100 nM and the Dmax is greater than 90%. In test [2], the DC50 is less than 100 nM and the Dmax lay within 70 to 90%.
